From patent US20150025131A1 (priority 2013, published 2015)
In brackets after ≈: the same amount, converted by molar mass.

How the values were obtained:
[1] = test system: rheumatoid factor; assay: Adjuvant induced arthritis model, serum RA factor; format: in vivo, Sprague Dawley rats; conditions: AIA rats, daily intraperitoneal; Patuletin 25 mg/kg, indomethacin 5 mg/kg
Description: All studies were carried out using Female Sprague Dawley (SD) rats weighing 150-250 gms. Animals were kept at 21±2° C. and on a 12-h light/dark cycle, received standardized pelleted diet and tap water. Experiments were performed under the ethical guidelines of the International Association for the study of pain in conscious animals. Each group contains 12 animals with randomly distributed weights into each treatment group.
Arthritis was induced by injecting freshly prepared 100 μL of 1 mg suspension of lyophilized Mycobacterium tuberculosis H37Ra (MT H37Ra; DIFCO Laboratories, Detroit, Mich., USA), subcutaneously at the rat tail base using sterile hypodermic needle. Inoculation was carried out under anesthesia with a combination of 20 mg/kg ketamine and 5 mg/kg xylazine, injected intraperitoneally. Compound and the reference drug were administered daily, intraperitoneally using sterile syringes. […]
Measurement of RA factor in rat serum was determined using Tina-quant RFII Kit (Roche Diagnostics, USA) and automated analyzers according to manufacturer's instructions. The test principle involves the reaction of latex bound heat inactivated IgG (antigen) with RF antibodies in the sample to form Ag/Ab complex resulting in agglutination which can be measured turbidimetrically.

[2] = MTT cytotoxicity assay, CC1; format: cell-based; conditions: rat, CC1 rat epithelial liver cells, 48 h incubation, read-out: Cytotoxicity (IC50 μg/mL) CC1 cells
Description: Cell cytotoxicity assay was performed using three different cell lines NIH 3T3 (mouse embryo, fibroblast cells), CC1 (rat, epithelial, liver cell) and MDBK (bovine kidney) cells using MTT (3-[4,5-dimethylthiazole-2-yl]-2,5-diphenyl-tetrazolium bromide) colorimetric assay. Briefly 3T3 were grown in DMEM, supplemented with 10% of fetal bovine serum (FBS), and 1% penicillin-streptomycin whereas CC1 (rat epithelial liver cells) were cultured in EMEM, 2 mM Glutamine, 1% Non-Essential Amino Acids (NEAA), 20 mM HEPES, 10% Foetal Bovine Serum (FBS) and 1% penicillin-streptomycin, and MDBK cells were grown in 10% of fetal bovine serum (FBS) in 75 cm^2 flask, and incubated in 5% CO2 incubator at 37° C. until they attain 70% confluency. Cells were then harvested by centrifuging at 200 g for 5 min at 25° C., counted using heamocytometer and their concentration was adjusted to 6×10^4 cells/mL. 100 μL of Cells were then plated in 96 well plate and incubated overnight. Next day the supernatant was carefully removed and 200 μL of fresh medium was added with three different concentration of compound (1, 10, 50) μg/mL. […] The extent of MTT reduction to formazan within cells was calculated by measuring the absorbance at 540 nm; using a micro plate reader (Spectra Max plus 340, Molecular Devices, Calif., USA). […] The percent inhibition was calculated by using the following formula: […]

[3] = test system: ROS production from human neutrophils; assay: Luminol enhanced chemiluminescence oxidative burst, isolated neutrophils; format: cell-based; conditions: Neutrophil, serum opsonized zymosan, read-out: Myeloperoxidase dependent Oxidative Burst (IC50 μg/mL) Neutrophils
Description: Intracellular effect was determined using human peripheral whole blood phagocytes and isolated neutrophils and from mice peritoneum macrophages, where luminol-enhanced chemillumenescence assay was applied. The effect on myeloperoxidase independent ROS production was determined using lucigenin on murine macrophages RAW.267 cells.
Table 2. […] 267 cells (murine macrophages). DPI is used as standard drug. Reading presents mean±SD of three determinations.
Heparinized blood was obtained by vein puncture aseptically, from healthy volunteers (25-38 years age). The buffy coat containing polymorhonuclear neutrophils (PMNs) was collected by dextran sedimentation, and cells were isolated after the LSM density gradient centrifugation. […]
Luminol enhanced chemiluminescence technique was applied to study the effect of compound on ROS from phagocytes, Using whole blood, neutrophil and macrophages Briefly, 25 μL diluted whole blood (1:50 dilution in sterile HBSS^++) or 25 μL of PMNs (1×10^6), or 25 μL of isolated macrophages (1×10^6) were incubated with 25 μL of compound in triplicates and using three different concentrations (1, 10 and 100 μg/mL) using white 96 wells plates. […] Results were monitored as relative light unit (RLU) reading, with peak and total integral values set with repeated scans at 60 seconds intervals, and 1 second points measuring time.

[4] = test system: IL-1β production; assay: IL-1β production from PMA differentiated, LPS activated THP-1 cells (ELISA); format: cell-based; conditions: Homo sapiens, 18 h, read-out: inhibition of IL-1β production (IC50)
Description: THP-1 (human monocytic leukemia) cells were maintained in RPMI-1640 supplemented with 10% FBS, 2 mmol/L glutamine, 5.5 mmol/L glucose, 50 μmol/L mercaptoethanol, 1 mmol/L sodium pyruvate, and 10 mmol/L HEPES and incubated at 37° C. in 5% CO2. Cells were grown in […] culture flask until they attained 70% confluency. Cells were then plated in 24-well tissue culture plates at a concentration of 2.5×10^5 cells/mL. Cells were differentiated into macrophages using PMA at a final concentration of 20 ng/mL and further incubated at 37° C. in 5% CO2 environment for 24 h. […] After addition of the compound cells were then incubated for 4 h for TNF-α production and 18 h for IL-1β production at 37° C. in 5% CO2. The supernatants were harvested and analyzed for the level of TNF-α and IL-1β, by human TNF-α and IL-1β Duo set ELISA kits, and according to the manufacturer's instructions.

## COc1c(O)cc2oc(-c3ccc(O)c(O)c3)c(O)c(=O)c2c1O [Patuletin, 3,5,7,3′,4′-pentahydroxy-6-methoxy flavones]
[1]
  level of RA factor (rheumatoid factor) in serum versus arthritic control group: marked decrease
[2]
  IC50 at 48 h: 5.2 µg/mL (≈ 15.7 µM)
[3]
  IC50: 1.2 µg/mL
[4]
  IC50: > 50 µg/mL
